Data reported in the NIST ThermoML archive (doi:10.1021/acs.jced.7b00712).
± gives the expanded uncertainty stated by the source.

Details: Fluid (supercritical or subcritical phases), Brillouin light scattering

## CC(C)CC(C)(C)C [2,2,4-trimethylpentane]
543.74 K, 6000 kPa
  speed of sound: 314.4 ± 4.6 m/s
544.07 K, 10000 kPa
  speed of sound: 409.3 ± 5.6 m/s
544.08 K, 12000 kPa
  speed of sound: 448.4 ± 6 m/s
547.77 K, 3000 kPa
  speed of sound: 135.2 ± 7.2 m/s
548.38 K, 4000 kPa
  speed of sound: 216.1 ± 6 m/s
548.79 K, 5000 kPa
  speed of sound: 262.4 ± 4.9 m/s
548.93 K, 12000 kPa
  speed of sound: 439.8 ± 5.9 m/s
548.94 K, 6000 kPa
  speed of sound: 301.9 ± 4.5 m/s
549.02 K, 10000 kPa
  speed of sound: 399.6 ± 5.5 m/s
552.48 K, 3000 kPa
  speed of sound: 103.8 ± 6.9 m/s
553.35 K, 4000 kPa
  speed of sound: 194.1 ± 6.5 m/s
553.8 K, 5000 kPa
  speed of sound: 247.6 ± 5 m/s
553.96 K, 6000 kPa
  speed of sound: 286.4 ± 4.4 m/s
554.24 K, 12000 kPa
  speed of sound: 430.8 ± 5.8 m/s
554.27 K, 10000 kPa
  speed of sound: 392.6 ± 5.5 m/s
558.01 K, 3000 kPa
  speed of sound: 97.9 ± 5.6 m/s
558.52 K, 10000 kPa
  speed of sound: 386.7 ± 5.4 m/s
558.54 K, 12000 kPa
  speed of sound: 426 ± 5.7 m/s
559.12 K, 6000 kPa
  speed of sound: 272.8 ± 4.8 m/s
559.16 K, 5000 kPa
  speed of sound: 232.4 ± 5 m/s
559.18 K, 4000 kPa
  speed of sound: 172.1 ± 6 m/s
563.28 K, 4000 kPa
  speed of sound: 154.4 ± 5.4 m/s
564.27 K, 5000 kPa
  speed of sound: 214.5 ± 5.1 m/s
564.68 K, 12000 kPa
  speed of sound: 415.3 ± 5.6 m/s
564.81 K, 10000 kPa
  speed of sound: 374.5 ± 5.3 m/s
564.85 K, 6000 kPa
  speed of sound: 257.3 ± 4.2 m/s
567.24 K, 3000 kPa
  speed of sound: 109.9 ± 2.6 m/s
568.08 K, 4000 kPa
  speed of sound: 137.3 ± 4.3 m/s
569.24 K, 5000 kPa
  speed of sound: 201.2 ± 5.2 m/s
569.81 K, 12000 kPa
  speed of sound: 404.7 ± 5.5 m/s
570.06 K, 6000 kPa
  speed of sound: 244.3 ± 4.1 m/s
570.54 K, 10000 kPa
  speed of sound: 362.4 ± 5.2 m/s
570.76 K, 3000 kPa
  speed of sound: 112.7 ± 1.6 m/s
573.32 K, 4000 kPa
  speed of sound: 122.1 ± 5.4 m/s
574.23 K, 5000 kPa
  speed of sound: 187 ± 5.2 m/s
574.7 K, 6000 kPa
  speed of sound: 233 ± 4 m/s
574.8 K, 12000 kPa
  speed of sound: 398.5 ± 5.5 m/s
575.07 K, 10000 kPa
  speed of sound: 354 ± 5.1 m/s
576.9 K, 3000 kPa
  speed of sound: 117.3 ± 1.6 m/s
578.09 K, 4000 kPa
  speed of sound: 114.9 ± 2.8 m/s
579 K, 5000 kPa
  speed of sound: 173.2 ± 5 m/s
579.62 K, 6000 kPa
  speed of sound: 222.1 ± 3.9 m/s
580.26 K, 12000 kPa
  speed of sound: 388.5 ± 5.4 m/s
580.32 K, 10000 kPa
  speed of sound: 343.6 ± 5 m/s
582.97 K, 4000 kPa
  speed of sound: 114.7 ± 2.2 m/s
583.34 K, 3000 kPa
  speed of sound: 121.9 ± 1.7 m/s
584.13 K, 5000 kPa
  speed of sound: 161.6 ± 4.5 m/s
584.82 K, 6000 kPa
  speed of sound: 208.9 ± 3.9 m/s
585.19 K, 12000 kPa
  speed of sound: 379.7 ± 5.2 m/s
585.35 K, 10000 kPa
  speed of sound: 337.5 ± 5 m/s
586.96 K, 3000 kPa
  speed of sound: 125 ± 1.8 m/s
587.1 K, 4000 kPa
  speed of sound: 116 ± 1.8 m/s
588.18 K, 5000 kPa
  speed of sound: 151.1 ± 4 m/s
588.98 K, 6000 kPa
  speed of sound: 199.3 ± 3.8 m/s
589.39 K, 12000 kPa
  speed of sound: 374.8 ± 5.2 m/s
589.65 K, 10000 kPa
  speed of sound: 331.2 ± 4.9 m/s
592.49 K, 4000 kPa
  speed of sound: 117.9 ± 1.6 m/s
592.79 K, 3000 kPa
  speed of sound: 130.8 ± 2 m/s
593.39 K, 5000 kPa
  speed of sound: 140.6 ± 3.6 m/s
594.09 K, 6000 kPa
  speed of sound: 191.7 ± 3.7 m/s
594.93 K, 12000 kPa
  speed of sound: 363.8 ± 5.1 m/s
595.15 K, 10000 kPa
  speed of sound: 318.7 ± 4.8 m/s
597.57 K, 4000 kPa
  speed of sound: 119.2 ± 1.6 m/s
597.98 K, 3000 kPa
  speed of sound: 136.1 ± 2.2 m/s
598.54 K, 5000 kPa
  speed of sound: 135.1 ± 3.2 m/s
599.18 K, 6000 kPa
  speed of sound: 184.6 ± 3.6 m/s
600.35 K, 10000 kPa
  speed of sound: 311.6 ± 4.7 m/s
600.58 K, 12000 kPa
  speed of sound: 356.1 ± 5 m/s
602.34 K, 4000 kPa
  speed of sound: 121.2 ± 1.6 m/s
602.56 K, 3000 kPa
  speed of sound: 141.1 ± 2.4 m/s
603.22 K, 5000 kPa
  speed of sound: 132.5 ± 2.8 m/s
604.02 K, 6000 kPa
  speed of sound: 175.1 ± 3.5 m/s
604.68 K, 12000 kPa
  speed of sound: 350.2 ± 4.9 m/s
605.01 K, 10000 kPa
  speed of sound: 304.3 ± 4.6 m/s
607.09 K, 4000 kPa
  speed of sound: 124.3 ± 1.7 m/s
607.67 K, 5000 kPa
  speed of sound: 131 ± 2.4 m/s
607.97 K, 3000 kPa
  speed of sound: 145.8 ± 2.5 m/s
608.43 K, 6000 kPa
  speed of sound: 167.7 ± 3.4 m/s
609.5 K, 12000 kPa
  speed of sound: 342.6 ± 4.8 m/s
609.62 K, 10000 kPa
  speed of sound: 295.9 ± 4.5 m/s
612.44 K, 4000 kPa
  speed of sound: 129.9 ± 1.8 m/s
612.74 K, 5000 kPa
  speed of sound: 131.9 ± 2.2 m/s
613.31 K, 3000 kPa
  speed of sound: 150.4 ± 2.5 m/s
613.49 K, 6000 kPa
  speed of sound: 164.3 ± 3.3 m/s
614.69 K, 10000 kPa
  speed of sound: 286.8 ± 4.4 m/s
614.9 K, 12000 kPa
  speed of sound: 336.6 ± 4.8 m/s
617.81 K, 4000 kPa
  speed of sound: 134.8 ± 1.9 m/s
618.08 K, 5000 kPa
  speed of sound: 135 ± 2 m/s
618.6 K, 6000 kPa
  speed of sound: 159.9 ± 3.2 m/s
618.84 K, 3000 kPa
  speed of sound: 154.9 ± 2.6 m/s
619.6 K, 12000 kPa
  speed of sound: 329.3 ± 4.7 m/s
619.8 K, 10000 kPa
  speed of sound: 281.3 ± 4.3 m/s
622.75 K, 4000 kPa
  speed of sound: 139 ± 2 m/s
622.82 K, 5000 kPa
  speed of sound: 137.2 ± 1.9 m/s
623.43 K, 6000 kPa
  speed of sound: 156.1 ± 3.1 m/s
623.75 K, 3000 kPa
  speed of sound: 159.5 ± 2.6 m/s
624.61 K, 12000 kPa
  speed of sound: 321.5 ± 4.6 m/s
624.7 K, 10000 kPa
  speed of sound: 276.4 ± 4.3 m/s
627.69 K, 5000 kPa
  speed of sound: 141.2 ± 1.9 m/s
628.07 K, 4000 kPa
  speed of sound: 145.5 ± 2.1 m/s
628.11 K, 6000 kPa
  speed of sound: 153.4 ± 2.9 m/s
629.13 K, 10000 kPa
  speed of sound: 269.4 ± 4.2 m/s
629.2 K, 12000 kPa
  speed of sound: 316.9 ± 4.5 m/s
629.42 K, 3000 kPa
  speed of sound: 164 ± 2.5 m/s
631.25 K, 5000 kPa
  speed of sound: 143.4 ± 1.9 m/s
631.51 K, 6000 kPa
  speed of sound: 156 ± 2.3 m/s
632.19 K, 4000 kPa
  speed of sound: 148.1 ± 2.1 m/s
633.71 K, 3000 kPa
  speed of sound: 166.1 ± 2.6 m/s
